# Measured values reported in patent US20070155663A1, “Use of chemokine receptor agonists for stem cell transplantation” (priority 2003, published 2007).
# Test system: FDCP-Mix cells
# Experiment: in vitro chemotactic assay of FDCP-Mix cells in 96-transwell chambers
# Assay type: cell-based
# Settings: migration for 14 h
# Description: Figure: FDCP-Mix cells were subjected to in vitro chemotactic assays. Chemotaxis was assessed in 96-transwell chambers (Neuroprobe, Cabin John, MD) by using polyvinylpyrrolidone-free polycarbonate membranes (Nucleopore, Neuroprobe) with 5-μm pores. Four hundred microliters of IMDM medium was added to the bottom of the well, and was supplemented with varying concentrations of SDF-1α or MIP-3α (R&D Systems). 100 μl of IMDM medium containing 50.000 FDCP-Mix cells were added to the upper wells of the chemotaxis chamber. Additionally 100 μl of medium either with no supplement or supplemented with MIP-3α was added to the upper well. […] Simultaneously FDCP-Mix progenitor cells were coincubated with MIP-3α in concentrations of 10 to 1000 ng/ml medium.
substance,measurement,setting,value
"MIP-3α: Macrophage Inflammatory Protein - 3α, CCR6 ligand (R&D Systems)",Chemotactic migration of FDCP-Mix progenitor cells,"MIP-3a in the bottom well, 10 to 1000 ng/ml medium",does not induce chemotactic migration
same,Sensitivity of FDCP-Mix cells to migrate to SDF-1α,"SDF-1a 10 ng/ml in bottom well, cells coincubated with agonist (MIP-3α 10 to 1000 ng/ml medium)",does increase the sensitivity
